Laboratory results from US20190225670A1, “COMPOUNDS AND METHODS FOR ACTIVATING TIE2 SIGNALING” (ASCLEPIX THERAPEUTICS, LLC, priority 2016, published 2019).

Assays:
STAT3 = experiment: Western blot of phospho-STAT3 (Y705) in MEC lysates treated with Ang2 and AXT107; format: cell-based, human
Description: A confluent monolayer of human microvascular endothelial cells (HMEC) was serum starved with EBM-2 overnight. After a 90 min treatment with AXT107 at concentrations of 0, 10, 32, and 100 μM, the cells were treated for 15 min with 1 mM sodium orthovanadate. Next the cells were treated with Angiopoietin-2 (Ang-2) at 200 ng/mL for 15 min. Following cell lysis, the lysates were immunoblotted for pTie2 (Y992), pSTAT3 (Y705), and pAkt (S473).
For Ang1/2 signaling investigations, cell culture dishes (10 cm diameter) were coated with 5 μg/ml fibronectin (FN1; Sigma-Aldrich, St. Louis, Mo.) for two hours at 37° C. The FN1 solution was then removed by aspiration and 5×10^6 microvascular endothelial cells (MECs; Lonza, Walkersville, Md.) were plated in EGM-2MV media (Lonza) and cultured for forty-eight hours at 37° C. […] Specific proteins were identified by Western blot, using the following primary antibodies: Cell Signaling—phospho-Tie2 (Y992) (Cat#: 4221), Tie2 (Cat#: 7403), phospho-Stat3 (Y705) (Cat#: 4113), Stat3 (Cat#: 4904), phospho-Akt (S473) (Cat#: 4058), Akt (Cat#: 9272), phospho-p44/42 MAPK (T202/Y204) (Cat#: 4370), p44/42 MAPK (Cat#: 4695); BD Transduction Laboratories—β1 integrin (Cat#: 610467); Millipore—α5 integrin (Cat#: AB1928) and detected with HRP-conjugated goat anti-rabbit and sheep anti-mouse secondary antibodies (GE healthcare).

VE-cadherin = VE-cadherin western blot and immunofluorescence in MEC monolayers; format: cell-based, human
Description: The jaggedness of these junctions is related to the structure of actin within the cell.
Glass-bottomed, 96-well plates with half well size were coated with 10 μg/ml FN1 for two hours at 37° C. The FN1 solution was then removed by aspiration and the plate seeded with 4×10^3 MECs in EGM-2MV media. After twenty-four hours, the cells were washed once with dPBS containing Ca^2+ and Mg^2+ to remove dead cells and the cells were allowed to grow for an additional twenty-four hours. For three-hour duration treatments (i.e., VE-cadherin), cells were washed twice with dPBS containing Ca^2+ and Mg^2+ and serum starved in EBM-2 for ninety minutes. The media was then removed and the cells were treated for three hours with 100 μl of EBM-2 media containing 200 ng/ml Ang2 or PBS and varying concentrations of AXT107 or DMSO. For fifteen minute-treated samples (i.e., phospho-Tie2), the cells were serum starved in EBM-2 media for 165 minutes, incubated for ninety minutes with varying concentrations of AXT107 or DMSO in EBM-2, and finally stimulated for fifteen minutes with 200 ng/ml Ang2 or PBS supplemented with peptide to retain the same concentrations. These times were chosen so that both treatment procedures would be completed at the same time. The cells were then washed twice with cold dPBS containing Ca^2+ and Mg^2+ and fixed in 10% neutral buffered formalin for fifteen minutes. […]

LRRFSTAPFAFIDINDVINF [AXT107]
STAT3 phosphorylation (STAT3): increased phosphorylation | distribution of VE-cadherin at junctions (VE-cadherin; 200 ng/ml Ang2, increasing concentrations of AXT107): became progressively smoother | total level of VE-cadherin (VE-cadherin; three hours of AXT107 and 200 ng/ml Ang2): remained unchanged
